Results taken from the supplement of paper PMC10307832.

Key:
Assay in all cases: relative viability (nuclei count vs DMSO), 5 days (fraction); higher = more cells survive
XMD13-2 + Dasatinib = compound: C1CC1C(=O)NC2=NNC3=C2C=CC(=C3)C4=CC(=CC=C4)C(=O)NC5CC5 [XMD13-2] + Cc1nc(Nc2ncc(C(=O)Nc3c(C)cccc3Cl)s2)cc(N2CCN(CCO)CC2)n1 [Dasatinib] (partner 0.075 µM)
Outline: (§1)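 Lung cancer cell lines in 1536-well plates got either a single drug or a fixed anchor-drug dose together with five library-drug doses (not always all listed) in √10 steps, by pin tool, on the day after seeding. Nuclei were counted after 5 days, and relative viability is the treated-to-vehicle ratio of nuclei counts. Values are medians of duplicate plates.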

XMD13-2 + Vorinostat = compound: C1CC1C(=O)NC2=NNC3=C2C=CC(=C3)C4=CC(=CC=C4)C(=O)NC5CC5 [XMD13-2] + O=C(CCCCCCC(=O)Nc1ccccc1)NO [Vorinostat] (partner 1 µM)
Outline: as §1

ALW-II-49-7 + Luminespib = compound: Cc1ccc(C(=O)Nc2cccc(C(F)(F)F)c2)cc1Nc1cncc(C(N)=O)c1 [ALW-II-49-7] + CCNC(=O)c1noc(-c2cc(C(C)C)c(O)cc2O)c1-c1ccc(CN2CCOCC2)cc1 [Luminespib] (partner 0.01 µM)
Outline: as §1

ALW-II-49-7 + Pemetrexed = compound: Cc1ccc(C(=O)Nc2cccc(C(F)(F)F)c2)cc1Nc1cncc(C(N)=O)c1 [ALW-II-49-7] + Nc1nc2[nH]cc(CCc3ccc(C(=O)N[C@@H](CCC(=O)O)C(=O)O)cc3)c2c(=O)[nH]1 [Pemetrexed] (partner 0.2 µM)
Outline: as §1

Row | Cell Line | relative viability (XMD13-2 + Dasatinib; first compound 0.05 µM) | relative viability (XMD13-2 + Dasatinib; first compound 0.1581 µM) | relative viability (XMD13-2 + Dasatinib; first compound 0.5 µM) | relative viability (XMD13-2 + Dasatinib; first compound 1.581 µM) | relative viability (XMD13-2 + Dasatinib; first compound 5 µM) | relative viability (XMD13-2 + Vorinostat; first compound 0.05 µM) | relative viability (XMD13-2 + Vorinostat; first compound 0.1581 µM) | relative viability (XMD13-2 + Vorinostat; first compound 0.5 µM) | relative viability (XMD13-2 + Vorinostat; first compound 1.581 µM) | relative viability (XMD13-2 + Vorinostat; first compound 5 µM) | relative viability (ALW-II-49-7 + Luminespib; first compound 0.08 µM) | relative viability (ALW-II-49-7 + Luminespib; first compound 0.253 µM) | relative viability (ALW-II-49-7 + Luminespib; first compound 0.8 µM) | relative viability (ALW-II-49-7 + Luminespib; first compound 2.53 µM) | relative viability (ALW-II-49-7 + Luminespib; first compound 8 µM) | relative viability (ALW-II-49-7 + Pemetrexed; first compound 0.08 µM) | relative viability (ALW-II-49-7 + Pemetrexed; first compound 0.253 µM) | relative viability (ALW-II-49-7 + Pemetrexed; first compound 0.8 µM) | relative viability (ALW-II-49-7 + Pemetrexed; first compound 2.53 µM) | relative viability (ALW-II-49-7 + Pemetrexed; first compound 8 µM)
1 | NCI-H1355 | 0.847 | 0.839 | 0.79 | 0.695 | 0.61 | 0.704 | 0.601 | 0.694 | 0.624 | 0.638 | 0.722 | 0.628 | 0.658 | 0.562 | 0.708 | 0.964 | 1.13 | 1.01 | 1.04 | 1.07
2 | NCI-H1395 | 0.459 | 0.428 | 0.402 | 0.394 | 0.441 | 0.732 | 0.871 | 0.651 | 0.594 | 0.707 | 0.754 | 0.796 | 0.823 | 0.716 | 0.706 | 0.894 | 0.984 | 1.18 |  | 0.621
3 | NCI-H1437 | 0.409 | 0.442 | 0.397 | 0.352 | 0.556 | 0.879 | 0.815 | 0.756 | 0.793 | 0.786 | 1.13 | 1.12 | 1.11 | 1.08 | 1.06 | 0.324 | 0.328 | 0.345 | 0.311 | 0.243
4 | NCI-H1650 | 0.268 | 0.367 | 0.318 | 0.282 | 0.296 | 0.661 | 0.584 | 0.576 | 0.594 | 0.555 | 0.199 | 0.169 | 0.209 | 0.19 | 0.206 | 0.352 | 0.379 | 0.383 | 0.378 | 0.406
5 | NCI-H1651 | 0.508 | 0.351 | 0.423 | 0.374 | 0.538 | 0.586 | 0.561 | 0.565 | 0.593 | 0.613 | 0.637 | 0.802 | 0.801 | 0.644 | 0.876 | 0.5 | 0.631 | 0.615 | 0.574 | 0.441
6 | NCI-H1666 | 0.789 | 0.852 | 0.861 | 0.813 | 0.851 | 0.999 | 1.02 | 1.09 | 1.03 | 1 | 0.951 | 0.999 | 1.04 | 1.12 | 1 | 0.783 | 0.944 | 0.831 | 0.847 | 0.785
7 | NCI-H1734 | 0.493 | 0.419 | 0.484 | 0.373 | 0.428 | 1.02 | 0.777 | 0.753 | 0.685 | 0.547 | 0.209 | 0.177 | 0.169 | 0.181 | 0.186 | 0.427 | 0.448 | 0.428 | 0.404 | 0.443
8 | NCI-H1755 | 0.526 | 0.425 | 0.418 | 0.459 | 0.428 | 0.827 | 0.685 | 0.875 | 0.926 | 0.795 | 0.341 | 0.497 | 0.421 | 0.283 | 0.268 | 0.456 | 0.48 | 0.4 | 0.416 | 0.403
9 | NCI-H1793 | 0.457 |  | 0.41 | 0.4 | 0.429 | 1.03 | 0.602 | 0.746 | 0.666 | 0.928 | 0.146 | 0.197 | 0.195 | 0.177 | 0.175 | 1.05 | 0.806 | 1.08 | 0.868 | 0.734
10 | NCI-H1915 | 0.362 | 0.342 | 0.322 | 0.302 | 0.305 | 0.582 | 0.486 | 0.5 | 0.486 | 0.474 | 0.745 | 0.612 | 0.679 | 0.493 | 0.441 | 0.451 | 0.546 | 0.49 | 0.457 | 0.375
11 | NCI-H1944 | 0.226 | 0.236 | 0.229 | 0.235 | 0.213 | 0.632 | 0.53 | 0.607 | 0.808 | 0.628 | 0.884 | 0.805 | 0.796 | 0.815 | 0.738 | 0.6 | 0.597 | 0.611 | 0.582 | 0.537
12 | NCI-H1975 | 0.444 | 0.361 | 0.467 | 0.324 | 0.393 | 0.795 | 0.636 | 0.662 | 0.931 | 0.801 | 0.431 | 0.165 | 0.235 | 0.292 | 0.198 | 0.312 | 0.306 | 0.266 | 0.296 | 0.244
13 | NCI-H1993 | 0.601 | 0.44 | 0.526 | 0.519 | 0.573 | 1.2 | 0.814 | 0.769 | 0.613 | 0.907 | 0.701 | 0.705 | 0.95 | 0.793 | 1.14 | 0.61 | 0.515 | 0.631 | 0.591 | 0.64
14 | NCI-H2009 | 0.366 | 0.277 | 0.432 | 0.288 | 0.278 | 0.838 | 0.732 | 0.835 | 0.783 | 0.804 | 1.04 | 1.02 | 1.04 | 0.845 | 0.728 | 0.971 | 1.14 | 0.955 | 0.751 | 0.749
